Experimental data from patent US9938257B2 (Sunshine Lake Pharma Co., Ltd., priority 2015, dated 2018).

Experiments:
[1] = Compound stability in rat liver microsomes; assay type: in vitro ADME; conditions: pH 7.4; for half-life at 5 μM: rat liver microsomes 0.5 mg protein/mL, compound 5 μM, NADPH 1.0 mM, 37° C., read-out: Rat T1/2; for CLint scaled at 5 μM: rat liver microsomes, in vivo CLint extrapolated
Method: (§1) Human or rat liver microsomes incubations were conducted in duplicate in polypropylene tubes. The typical incubation mixtures consisted of human or rat liver microsomes (0.5 mg protein/mL), compounds of interest (5 μM) and NADPH (1.0 mM) in a total volume of 200 μL potassium phosphate buffer (PBS, 100 mM, pH 7.4). Compounds were dissolved in DMSO and diluted with PBS such that the final concentration of DMSO was 0.05%. The enzymatic reactions were commenced with the addition of protein after a 3-min preincubation and incubated in a water bath open to the air at 37° C. Reactions were terminated at various time points (0, 5, 10, 15, 30, 60 min) by adding equal volume of ice-cold acetonitrile. The samples were stored at −80° C. until LC/MS/MS assays.
(§2) The concentrations of compounds in the incubation mixtures of human or rat liver microsomes were determined by a LC/MS/MS method. The ranges of the linearity in the concentration range were determined for each tested compounds.
(§3) A parallel incubation was performed using denatured microsomes as the negative control, and reactions were terminated at various time points (0, 15, 60 min) after incubation at 37° C.
(§4) Dextromethorphan (70 μM) was selected as the positive control, and reactions were terminated at various time points (0, 5, 10, 15, 30, 60 min) after incubation at 37° C. Both positive and negative control samples were included in each assay to ensure the integrity of the microsomal incubation system.
(§5) The concentrations of compounds in human or rat liver microsome incubations were plotted as a percentage of the relevant zero time point control for each reaction. The in vivo CLint were extrapolated (ref.: Naritomi, Y.; Terashita, S.; Kimura, S.; Suzuki, A.; Kagayama, A.; and Sugiyama, Y.; Prediction of human hepatic clearance from in vivo animal experiments and in vitro metabolic studies with liver microsomes from animals and humans. Drug Metab. Dispos., 2001, 29: 1316-1324).

[2] = Compound stability in human liver microsomes; assay type: in vitro ADME; conditions: pH 7.4; for half-life at 5 μM: human liver microsomes 0.5 mg protein/mL, compound 5 μM, NADPH 1.0 mM, 37° C., read-out: Human T1/2; for CLint scaled at 5 μM: human liver microsomes, in vivo CLint extrapolated
Method: as §1, §2, §3, §4, §5

Aurora-A (h) = Aurora-A (h) (Homo sapiens (Human), UniProt O14965); experiment: Aurora-A (h) kinase activity assay; assay type: biochemical
Method: (§6) The above assay procedure can be used to determine the IC50 for inhibition and/or the inhibition constant, Ki. The IC50 is defined as the concentration of compound required to reduce the enzyme activity by 50% under the condition of the assay. The IC50 value is estimated by preparing a 10 point curve using a ½ log dilution series (for example, a typical curve may be prepared using the following compound concentrations: 3 μM, 1 μM, 0.3 μM, 0.1 μM, 0.03 μM, 0.01 μM, 0.003 μM, 0.001 μM, 0.0003 μM and 0 μM).
(§7) Aurora-A (h) is incubated with 8 mM MOPS pH 7.0, 0.2 mM EDTA, 200 μM LRRASLG (Kemptide), 10 mM MgAcetate and [γ-^33P-ATP] (specific activity approx. 500 cpm/pmol, concentration as required). The reaction is initiated by the addition of the MgATP mix. After incubation for 40 minutes at room temperature, the reaction is stopped by the addition of 3% phosphoric acid solution. 10 μL of the reaction is then spotted onto a P30 filtermat and washed three times for 5 minutes in 75 mM phosphoric acid and once in methanol prior to drying and scintillation counting.
(§8) The kinase assays described herein were performed at Millipore UK Ltd, Dundee Technology Park, Dundee DD2 1SW, UK.

JAK1 (h) = JAK1 (h) (Homo sapiens (Human), UniProt P23458); experiment: JAK1 (h) kinase activity assay; assay type: biochemical
Method: as §6
as §7, with “JAK1” for “Aurora-A”, “20” for “8”, “Tris/HCl” for “MOPS”, “7.5,” for “7.0,”, “500” for “200”, “GEEPLYWSFPAKKK,” for “LRRASLG (Kemptide),”
as §8

[3] = Pharmacokinetics after intravenous and oral administration in rats; assay type: in vivo; conditions: for Clearance (CL) after iv dosing / AUC(0-t) / half-life / Vd: dose 1 mg/kg, iv dosing; for F: oral bioavailability, iv dose 1 mg/kg; for AUC(0-t) / half-life / Vd: rat, plasma; for Vd: read-out: Vss
Method: The compounds disclosed herein are assessed in pharmacokinetic studies in mice, rats, dogs or monkeys. The compounds are administered as a water solution, 2% HPMC+1% TWEEN®80 in water solution, 5% DMSO+5% solutol in saline, 4% MC suspension or capsule. For the intravenous administration, the animals are generally given at 0.5, 1 or 2 mg/kg dose. For the oral (p.o.) dosing, mice and rats are generally given 0.5, 1, 5 or 10 mg/kg dose, and dogs and monkeys are generally given 10 mg/kg dose. The blood samples (0.3 mL) are drawn at 0.25, 0.5, 1.0, 2.0, 3.0, 4.0, 6.0, 8.0, 12 and 24 h time points or 0.083, 0.25, 0.5, 1.0, 2.0, 4.0, 6.0, 8.0 and 24 h time points and centrifuged at 3,000 or 4000 rpm for 2 to 10 min. The plasma solutions are collected, and stored at −20° C. or −70° C. until analyzed by LC/MS/MS as described above.

Aurora-A (h), sequence (O14965 whole entry): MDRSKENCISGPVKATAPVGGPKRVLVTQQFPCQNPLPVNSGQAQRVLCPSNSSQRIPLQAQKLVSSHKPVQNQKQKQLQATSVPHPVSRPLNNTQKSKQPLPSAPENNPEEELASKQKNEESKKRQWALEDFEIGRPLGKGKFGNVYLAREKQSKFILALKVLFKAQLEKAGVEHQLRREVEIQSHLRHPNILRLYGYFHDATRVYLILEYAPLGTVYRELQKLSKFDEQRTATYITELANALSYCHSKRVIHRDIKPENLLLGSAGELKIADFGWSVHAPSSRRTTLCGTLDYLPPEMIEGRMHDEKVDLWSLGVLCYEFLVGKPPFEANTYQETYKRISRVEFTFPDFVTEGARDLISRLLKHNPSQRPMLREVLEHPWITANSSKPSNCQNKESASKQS
JAK1 (h), sequence (P23458 whole entry): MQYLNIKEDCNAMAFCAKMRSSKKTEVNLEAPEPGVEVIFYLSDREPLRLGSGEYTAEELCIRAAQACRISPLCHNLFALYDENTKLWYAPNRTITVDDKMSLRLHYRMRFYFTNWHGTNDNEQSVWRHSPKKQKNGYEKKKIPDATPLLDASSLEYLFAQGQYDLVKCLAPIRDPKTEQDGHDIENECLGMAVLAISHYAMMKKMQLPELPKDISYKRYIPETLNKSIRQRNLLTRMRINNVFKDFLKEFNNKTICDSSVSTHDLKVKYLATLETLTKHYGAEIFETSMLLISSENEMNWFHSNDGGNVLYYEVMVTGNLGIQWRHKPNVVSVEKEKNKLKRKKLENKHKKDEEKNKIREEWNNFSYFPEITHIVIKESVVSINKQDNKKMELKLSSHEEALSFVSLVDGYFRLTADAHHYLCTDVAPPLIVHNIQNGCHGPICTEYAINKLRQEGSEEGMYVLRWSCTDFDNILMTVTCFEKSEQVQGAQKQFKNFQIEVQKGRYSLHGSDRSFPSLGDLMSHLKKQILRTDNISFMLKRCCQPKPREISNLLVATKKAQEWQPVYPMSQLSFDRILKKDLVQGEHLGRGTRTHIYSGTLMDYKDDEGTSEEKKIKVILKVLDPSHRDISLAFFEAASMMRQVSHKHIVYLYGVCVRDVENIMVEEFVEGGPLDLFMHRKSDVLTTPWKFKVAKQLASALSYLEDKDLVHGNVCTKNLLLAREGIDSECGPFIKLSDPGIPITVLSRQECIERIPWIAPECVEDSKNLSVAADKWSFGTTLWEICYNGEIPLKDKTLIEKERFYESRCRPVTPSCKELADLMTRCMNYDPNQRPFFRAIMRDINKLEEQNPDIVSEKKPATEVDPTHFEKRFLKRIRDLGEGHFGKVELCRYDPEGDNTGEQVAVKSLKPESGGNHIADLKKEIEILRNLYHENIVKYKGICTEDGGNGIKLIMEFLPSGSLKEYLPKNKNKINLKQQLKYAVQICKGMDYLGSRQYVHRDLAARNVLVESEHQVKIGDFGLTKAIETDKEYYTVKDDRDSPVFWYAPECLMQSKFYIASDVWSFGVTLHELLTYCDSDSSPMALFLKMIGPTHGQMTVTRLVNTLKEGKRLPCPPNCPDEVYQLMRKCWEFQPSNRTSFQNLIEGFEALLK

Compound | half-life at 5 μM [1] [min] | CLint scaled at 5 μM [1] [mL/min/kg] | half-life at 5 μM [2] [min] | CLint scaled at 5 μM [2] [mL/min/kg] | IC50 (Aurora-A (h)) [nM] | IC50 (JAK1 (h)) [nM] | Clearance (CL) after iv dosing [3] [mL/min/kg] | F [3] [%] | AUC(0-t) [3] [ng·h/mL] | half-life [3] [min] | Vd [3] [L/kg]
Cn1cc(Nc2ncc(Cl)c(NC3CC4CN(S(=O)(=O)C(C)(C)C)CC4C3)n2)cn1 (stereo not shown) [Ex. 31, N^4-(2-(tert-butylsulfonyl)octahydrocyclopenta[c]pyrrol-5-yl)-5-chloro-N^2-(1-methyl-1H-pyrazol-4-yl)pyrimidine-2,4-diamine] |  |  |  |  | 50 |  |  |  |  |  | 
Cn1cc(Nc2ncc(Cl)c(NC3CC4CN(C(=O)N5CCOCC5)CC4C3)n2)cn1 (stereo not shown) [Ex. 29, (5-((5-chloro-2-((1-methyl-1H-pyrazol-4-yl)amino)pyrimidin-4-yl)amino)hexahydrocyclopenta[c]pyrrol-2(1H)-yl)(morpholino)methanone] | 19.8 | 126 | 43.2 | 40.2 |  |  | 40.3 | 102.8 | 413 | 21 | 1.19
Cn1cc(Nc2ncc(Cl)c(NC3CC4CN(c5ccc(C#N)nn5)CC4C3)n2)cn1 (stereo not shown) [Ex. 30, 6-(5-((5-chloro-2-((1-methyl-1H-pyrazol-4-yl)amino)pyrimidin-4-yl)amino)hexahydrocyclopenta[c]pyrrol-2(1H)-yl)pyridazine-3-carbonitrile] | 8.07 | 308 | 24.9 | 69.8 |  |  | 15.5 | 268.4 | 1140 | 36.6 | 0.71
Cn1cc(Nc2ncc(Cl)c(NC3CC4CN(CC(C)(C)O)CC4C3)n2)cn1 (stereo not shown) [Ex. 16, 1-(5-((5-chloro-2-((1-methyl-1H-pyrazol-4-yl)amino)pyrimidin-4-yl)amino)hexahydrocyclopenta[c]pyrrol-2(1H)-yl)-2-methylpropan-2-ol] | 6.28 | 395 | 210 | 8.27 |  | 32 |  |  |  |  | 
CC(=O)N1CC2CC(Nc3nc(Nc4cnn(CC(C)(C)O)c4)ncc3Cl)CC2C1 (stereo not shown) [Ex. 1, 1-(5-((5-chloro-2-((1-(2-hydroxy-2-methylpropyl)-1H-pyrazol-4-yl)amino)pyrimidin-4-yl)amino)hexahydrocyclopenta[c]pyrrol-2(1H)-yl)ethanone] | 112 | 22.2 | 148 | 11.7 | 58 | 10 | 46.2 | 61.7 | 360 | 38.4 | 1.53

Further molecules by falling IC50 (Aurora-A (h)), results first:

half-life at 5 μM [1] [min] | CLint scaled at 5 μM [1] [mL/min/kg] | half-life at 5 μM [2] [min] | CLint scaled at 5 μM [2] [mL/min/kg] | IC50 (Aurora-A (h)) [nM] | IC50 (JAK1 (h)) [nM] | Clearance (CL) after iv dosing [3] [mL/min/kg] | F [3] [%] | AUC(0-t) [3] [ng·h/mL] | half-life [3] [min] | Vd [3] [L/kg] | Compound
107 | 23.3 | 106 | 16.4 | 28 | 2 |  |  |  |  |  | CC(C)(O)Cn1cc(Nc2ncc(Cl)c(NC3CC4CN(C(=O)CC#N)CC4C3)n2)cn1 (stereo not shown) [Ex. 2, 3-(5-((5-chloro-2-((1-(2-hydroxy-2-methylpropyl)-1H-pyrazol-4-yl)amino)pyrimidin-4-yl)amino)hexahydrocyclopenta[c]pyrrol-2(1H)-yl)-3-oxopropanenitrile]
3.33 | 745 | 44.2 | 39.4 | 21 | 6 |  |  |  |  |  | Cn1cc(Nc2ncc(Cl)c(NC3CC4CN(C(=O)C5CC5)CC4C3)n2)cn1 (stereo not shown) [Ex. 14, (5-((5-chloro-2-((1-methyl-1H-pyrazol-4-yl)amino)pyrimidin-4-yl)amino)hexahydrocyclopenta[c]pyrrol-2(1H)-yl)(cyclopropyl)methanone]
43.7 | 56.8 | 73.5 | 23.7 | 19 |  |  |  |  |  |  | CC(O)Cn1cc(Nc2ncc(Cl)c(NC3CC4CN(C(=O)NC5CC5)CC4C3)n2)cn1 (stereo not shown) [Ex. 41, 5-((5-chloro-2-((1-(2-hydroxypropyl)-1H-pyrazol-4-yl)amino)pyrimidin-4-yl)amino)-N-cyclopropylhexahydrocyclopenta[c]pyrrole-2(1H)-carboxamide]
 |  |  |  | 17 | 12 | 60.2 | 30.5 | 278 | 14.4 | 0.99 | Cn1cc(Nc2ncc(Cl)c(NC3CC4CN(C(=O)CC5CC5)CC4C3)n2)cn1 (stereo not shown) [Ex. 12, 1-(5-((5-chloro-2-((1-methyl-1H-pyrazol-4-yl)amino)pyrimidin-4-yl)amino)hexahydrocyclopenta[c]pyrrol-2(1H)-yl)-2-cyclopropylethanone]
 |  |  |  | 12 |  |  |  |  |  |  | O=C(NC1CC1)N1CC2CC(Nc3nc(Nc4cnn(C5CCNC5)c4)ncc3Cl)CC2C1 (stereo not shown) [Ex. 40, 5-((5-chloro-2-((1-(pyrrolidin-3-yl)-1H-pyrazol-4-yl)amino)pyrimidin-4-yl)amino)-N-cyclopropylhexahydrocyclopenta[c]pyrrole-2(1H)-carboxamide]
 |  |  |  | 9 |  |  |  |  |  |  | CC(C)(O)Cn1cc(Nc2ncc(Cl)c(NC3CC4CN(S(=O)(=O)NC5CC5)CC4C3)n2)cn1 (stereo not shown) [Ex. 43, 5-((5-chloro-2-((1-(2-hydroxy-2-methylpropyl)-1H-pyrazol-4-yl)amino)pyrimidin-4-yl)amino)-N-cyclopropylhexahydrocyclopenta[c]pyrrole-2(1H)-sulfonamide]
7.15 | 347 | 35.7 | 48.6 | 6 |  | 54.2 | 37.3 | 308 | 17.4 | 1.44 | Cn1cc(Nc2ncc(Cl)c(NC3CC4CN(S(=O)(=O)CC5CC5)CC4C3)n2)cn1 (stereo not shown) [Ex. 17, 5-chloro-N^4-(2-((cyclopropylmethyl)sulfonyl)octahydrocyclopenta[c]pyrrol-5-yl)-N^2-(1-methyl-1H-pyrazol-4-yl)pyrimidine-2,4-diamine]
5.48 | 454 | 33.1 | 52.5 | 5 |  |  |  |  |  |  | Cn1cc(Nc2ncc(Cl)c(NC3CC4CN(S(=O)(=O)C5CC5)CC4C3)n2)cn1 (stereo not shown) [Ex. 13, 5-chloro-N^4-(2-(cyclopropylsulfonyl)octahydrocyclopenta[c]pyrrol-5-yl)-N^2-(1-methyl-1H-pyrazol-4-yl)pyrimidine-2,4-diamine]
